PMC9100673, “Acridine Based N-Acylhydrazone Derivatives as Potential Anticancer Agents: Synthesis, Characterization and ctDNA/HSA Spectroscopic Binding Properties” (Molecules, 2022)

Tests used:
A549 cells [1] = assay: Quantification of cell number and viability (eosin staining, Bürker chamber); assay type: cell-based, human; settings: 50 μM, 48 h
Experimental: For the assessment of total cell numbers and viability within individual experimental groups, floating and adherent cells were harvested after treatment with the studied compounds and evaluated using a Bürker chamber with eosin staining. A549 cells were plated at a density of 135 × 10^3 cell/well into a 6-well plate and treated with different concentration of derivatives (25 and 50 µM) for 48 h. The total cell number was expressed as a percentage of the untreated control of the total cell number. Viability was expressed as a percentage of viable, eosin negative cells. The results are presented as the average percentage of cells from three independent experiments.

[2] = target: T1, human serum albumin (HSA) (Homo sapiens, UniProt P02768); assay: HSA competitive site-marker experiment, reverse titration with 3a; assay type: binding; settings: for KSV / Kb: 25 °C
T1 construct: purchased Sigma (St. Louis, MO, USA)
T1 sequence (P02768 25-609): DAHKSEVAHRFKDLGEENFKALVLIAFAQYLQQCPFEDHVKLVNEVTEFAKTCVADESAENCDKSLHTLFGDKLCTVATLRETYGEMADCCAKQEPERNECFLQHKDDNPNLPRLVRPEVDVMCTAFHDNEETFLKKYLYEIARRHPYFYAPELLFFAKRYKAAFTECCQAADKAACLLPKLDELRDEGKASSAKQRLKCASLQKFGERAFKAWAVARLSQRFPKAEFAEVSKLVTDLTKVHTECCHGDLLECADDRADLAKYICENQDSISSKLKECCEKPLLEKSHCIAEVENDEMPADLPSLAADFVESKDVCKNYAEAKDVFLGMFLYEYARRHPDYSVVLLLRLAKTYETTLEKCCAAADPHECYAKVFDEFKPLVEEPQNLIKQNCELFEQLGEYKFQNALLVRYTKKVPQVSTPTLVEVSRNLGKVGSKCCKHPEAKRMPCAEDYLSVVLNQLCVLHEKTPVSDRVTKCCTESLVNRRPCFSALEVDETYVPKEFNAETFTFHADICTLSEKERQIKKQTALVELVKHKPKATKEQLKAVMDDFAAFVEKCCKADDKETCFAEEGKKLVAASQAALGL
Experimental: Displacement experiments were performed using warfarin and ibuprofen as site marker fluorescence probes, as these agents have been proven to bind with HSA at Sudlow sites I and II, respectively. The fluorescence quenching spectra of HSA:acridine derivatives […] (Figure 5) in the presence of increasing concentrations of specific site markers, warfarin or ibuprofen, were studied.
In addition to the spectra assays, reverse titration studies were also performed. The intensity of the fluorescence of the HSA:site marker complex was recorded at increasing concentrations of acridine derivative 3a, with the obtained results given in Figure S7. […] The obtained data were analysed using Equations (3) and (4). The linear Stern-Volmer dependence and dependence log(F0 − F)/F = log[Q] was used to obtain Stern-Volmer quenching constant values (KSV) and apparent binding constant values (Kb). […] A marked change in the quenching constant was also observed after the addition of ibuprofen, a result which could be partly due to the interaction between derivative 3a and ibuprofen. Similar changes and associated interactions between the marker and the studied ligand have been observed in other studies in which competitive experiments were conducted.
Competitive experiments of HSA were performed using warfarin and ibuprofen as standard site marker ligands. The selected markers for the site I were warfarin, whereas site II was probed using ibuprofen. HSA-acridine derivative (3a–3d) complexes at a concentration ratio of 1:1 ([HSA] = 4 μM) were titrated into specific side markers (0–20 μM). The molar ratio of the HSA:marker complexes were 1:0.5, 1:1, 1:1.5, 1:2, 1:2.5, 1:3, 1:3.5, 1:4, 1:4.5 and 1:5. The reaction mixture of the HSA-acridine derivatives complexes with the side markers were preincubated for 15 min prior to spectral measurements. Additionally, a reverse titration competitive experiment was performed for derivative 3a. The site probe-HSA complex (1:1, [HSA] = 4 μM) was titrated with derivative 3a at a concentration gradient of 0.6–6 μM. In order to determine the binding site of compound 3a, the fluorescence quenching data were analysed using Stern-Volmer and modified Stern-Volmer equations to calculate the value of the Stern-Volmer constants (KSV) and binding constants Kb, and to determine the number of binding sites n. All spectra measurements were performed at 280 nm excitation wavelength and the slits were set at 5 nm for excitation and 10 nm for emission spectra at a range of 290–550 nm and at 25 °C.

A549 cells [3] = assay: Colony forming (clonogenic) assay; assay type: cell-based, human; settings: 48 h treatment, 7 days cultivation; for effect on ability of A549 cells to form new colonies: 25 μM; for reduction of clonogenic ability of A549 cells vs control: 50 μM
Experimental: To assess drug efficacy and prevent treatment failure, it is important to observe whether cancer cells may proliferate during the interval between treatments. The clonogenic assay evaluates the efficacy of new drugs by observation of reduced repopulation of cancer cells and cell survival after treatment. This assay is important to select eligible anticancer drug candidates. The clonogenic survival was analysed after treatment of A549 cells with the compounds 3a and 3c. DMSO (0.5%) was used as solvent control. A549 cells were treated with 3a and 3c in concentrations of 25 and 50 μM for 48 h. The cells were then counted, and 500 viable cells per well were seeded and cultivated for another seven days under standard conditions.
For the colony forming assay, floating and adherent cells were harvested together 48 h after treatment with the studied compounds (25 and 50 µM). The cells were then counted using a Bürker chamber with eosin staining and 500 viable cells per well were seeded in 6-well plates. After seven days of cultivation under standard conditions, the cells in the plates were fixed and stained with 1% methylene blue dye in methanol. Visualized colonies were scanned and counted by Image software, and the results were evaluated as percentages of the untreated control. The results are presented as the average percentage of colonies from three independent experiments.

A549 cells [4] = assay: Cell cycle analysis by flow cytometry; assay type: cell-based, human; settings: 25 and 50 μM, 48 h
Experimental: For flow cytometric analysis of the cell cycle distribution, floating and adherent cells were harvested together 48 h after treatment with the compounds (25 and 50 µM), washed in cold PBS, fixed in cold 70% ethanol, and stored overnight at −20 °C. Prior to analysis, the cells were washed twice in PBS, resuspended in a staining solution (0.1% Triton X-100, 0.137 g L^−1 ribonuclease A and 0.02 g L^−1 propidium iodide (PI) and incubated in dark conditions at RT for 30 min. The DNA content was analysed using a BD FACSCalibur flow cytometer (Becton Dickinson, San Jose, CA, USA) with a 488 nm argon-ion excitation laser, and fluorescence was detected using a 585/42 nm band-pass filter (FL-2). ModFit 3.0 software (Verity Software House, Topsham, ME, USA) was used to generate DNA content frequency histograms and to quantify the percentage of cells in the individual cell cycle phases. The results are presented as the average ratio of cells in the individual phase to all cells from three independent experiments.

[5] = in the presence of ibuprofen (HSA:marker 1:1)
[6] = in the presence of warfarin (HSA:marker 1:1)

## O=C(N/N=C/c1cccc2cc3ccccc3nc12)c1ccccc1 [3a, N′-[(E)-(Acridin-4-yl)methylidene]benzohydrazide]
A549 cells [1]
  decrease of viability of A549 cells vs control: 34%
  reduction of total cell number vs control: approximately 94%
[2]; competition with warfarin and ibuprofen
  binding site on HSA: Sudlow site I
[2]; [5]
  KSV: 328000 M⁻¹
  Kb: 667000 M⁻¹
[2]; [6]
  KSV: 226000 M⁻¹
  Kb: 254000 M⁻¹
A549 cells [3]
  effect on ability of A549 cells to form new colonies: did not significantly reduce
  reduction of clonogenic ability of A549 cells vs control: 72%
A549 cells [4]
  effect on cell cycle distribution: accumulation of cells in the G2/M phase

## O=C(N/N=C/c1cccc2cc3ccccc3nc12)c1ccc(Cl)cc1 [3c, N′-[(E)-Acridin-4-ylmethylidene]-4-chlorobenzohydrazide]
A549 cells [1]
  decrease of viability of A549 cells vs control: 14%
  reduction of total cell number vs control: ~91%
A549 cells [3]
  effect on ability of A549 cells to form new colonies: did not significantly reduce
  reduction of clonogenic ability of A549 cells vs control: 74%
A549 cells [4]
  effect on cell cycle distribution: accumulation of cells in the G2/M phase
